Entries after “also recorded” stand apart in the source; their conditions may differ.
Key:
Hepa1-6 mouse HCC cells = test: RT-qPCR of hypoxia-induced mRNAs in Hepa1-6 cells; assay type: cell-based
Experimental: Effects of 32-134D on Hepa1-6 mouse HCC cells and tumors. […] Thus, 32-134D inhibits the ability of hypoxic HCC cells to increase O2 delivery by stimulating angiogenesis (Angpt14, Pgf, Vegfa) or […] anaerobic metabolism by increasing glycolytic flux (Glut1, Pgk1, Ldha).
Human Hep3B and mouse Hepa1-6 cells were purchased from ATCC and grown in high-glucose (4.5 mg/ml) Dulbecco's modified Eagle's medium supplemented with 10% (vol/vol) fetal bovine serum and […] at 37° C. in a 5% CO2/95% air incubator (20% O2). Human cell line identity was authenticated by analysis of short tandem repeats, and all cell lines were maintained mycoplasma free, using PCR-based assays conducted at the Johns Hopkins University Genetic Resources Core Facility. Cells were subjected to hypoxia in a controlled atmosphere chamber (PLAS Labs) with ambient gas mixture containing 1% O2 and 5% CO2.
RNA was extracted using TRIzol Reagent (ThermoFisher). Quantitative Real-time PCR was conducted using SYBR Green PCR Master Mix (BioRad) and reactions were run using the BioRad thermal cycler (BioRad). The mRNA expression of target genes was normalized to the expression of 18S rRNA and the fold change (FC) was calculated based on the threshold cycle (Ct) as […]

STZ mice = test: STZ diabetic mouse model, intraocular dosing; assay type: in vivo; conditions: single intraocular injection 70 ng, 5 days
Experimental: (§1) The efficacy of 32-134D following intraocular administration with 70 ng, as well as a lower dose (14 ng), in OIR mice at P12 (J. Zhang et al., J Clin Invest 131 (2021)) was determined.
The efficacy of 32-134D following IVT administration was also evaluated in the STZ model. STZ mice that were hyperglycemic for 6 months were treated with a single intraocular injection with 70 ng 32-134D in 1 ul or with vehicle (DMSO) control. 5 days later vascular hyperpermeability was assessed by examining leakage of intravascular Evans blue dye in STZ mice.
Vascular permeability by Evans blue tracer method: Mice were anesthetized with a mixture of ketamine (50 mg/kg) and xylazine (5 mg/kg) and subjected to Evans blue (Sigma) (50 mg/kg) perfusion by penile vein injection. […] Images were captured by Zeiss fluorescent microscope or confocal microscopy and fluorescence quantified by image J software (NIH). […] Blinded quantification of the number of leaking vessels was performed by manual counting major leakage from capillaries from retinas of each group. Non-capillary artifactual Evans blue or FITC-dextran leakage due to flat mount processing as well as minor leakages were not included in the quantitation. […] Random fields were chosen from retinas where leakages were absent to determine baseline fluorescence that arise from capillaries. For quantification, high magnifications (20×) images were taken. […]

OIR mice = test: OIR mouse model, intraocular dosing; assay type: in vivo
Experimental: as §1
The efficacy of 32-134D following IVT administration was also evaluated in the OIR model. At P14, pups were treated with a single intravitreal injection with 32-134D (14 or 70 ng) in 1 ul or with vehicle (DMSO) control. At P17, retinal flat mounts were stained with isolectin-B4 to examine the development of retinal neovascularization.
(§2) Intraocular injections: Intravitreal injections were performed with a PLI-100A Pico-liter Microinjector (Warner Instruments, Harvard Bioscience) using pulled-glass micropipettes. Each micropipette was calibrated to deliver a 1 μl volume on depression of a foot switch. The mice were anesthetized with a ketamine (100 mg/kg) and xylazine (5 mg/kg) mixture, and under a dissecting microscope, the sharpened tip of the micropipette was passed through the sclera just posterior to the limbus into the vitreous cavity and the foot switch was depressed, which caused fluid to penetrate into the vitreous space. Test compound was injected into the vitreous cavity in OIR and STZ mice for vascular permeability test, retinal vasculature and lysates for WB and qPCR analysis.
OIR mouse model: OIR experiments were performed as previously described (M. Rodrigues et al., 2013, Diabetes 62, 3863-3873). Briefly, C57BL/6 mice were placed in 75% O2 on P7. On P12, the mice were returned to room air and administered either by IP injection (digoxin and test compound) or by intravitreal injection. Mice with body weight less than 6 g at P17 were excluded from analysis. The data were collected from both males and females and the results combined, as there was no apparent difference between sexes. Representative images for selected time points from a minimum of three independent experiments are shown. Data from 3-8 pups were obtained at each time point.

C57BL/6 mice [1] = test: Ischemia/reperfusion (I/R) model of vascular permeability; assay type: in vivo, mouse; conditions: 5 daily IP injections 40 mg/kg
Experimental: The ability of 32-134D to inhibit vascular permeability in retinal vein occlusion patients was evaluated using the ischemia/reperfusion (I/R) model for vascular permeability in ischemic retinal disease. Transient ischemia was induced in the left eye in 8-to-10-week-old male C57BL/6 mice; the right eye was used as the non-I/R control. Following ischemia, mice were treated with 5 daily IP injections of vehicle control or 32-134D at 40 mg/kg. 24 hours after the fifth IP injection, mice were euthanized, Evans blue perfusion was performed, and retina flat mounts were examined for vascular leakage. […] There was no difference between non-/R (healthy) eyes and I/R eyes treated with 32-134D.
Vascular permeability by Evans blue tracer method: Mice were anesthetized with a mixture of ketamine (50 mg/kg) and xylazine (5 mg/kg) and subjected to Evans blue (Sigma) (50 mg/kg) perfusion by penile vein injection. […] Images were captured by Zeiss fluorescent microscope or confocal microscopy and fluorescence quantified by image J software (NIH). […] Blinded quantification of the number of leaking vessels was performed by manual counting major leakage from capillaries from retinas of each group. Non-capillary artifactual Evans blue or FITC-dextran leakage due to flat mount processing as well as minor leakages were not included in the quantitation. […] For quantification, high magnifications (20×) images were taken. […]

C57BL/6 mice [2] = test: Laser CNV model, intravitreal dosing; assay type: in vivo, mouse; conditions: single IVT injection 70 ng on day 3, day 7
Experimental: To evaluate the efficacy of 32-134D following intraocular administration, the laser CNV model for neovascular (wet) age-related macular degeneration was used (FIG. 25A). C57BL/6 mice were treated with laser on day 0. On day 3, mice were treated with a single IVT injection with 32-134D (1 μl of 14 or 70 ng/μl solution) or with vehicle control. On day 7, mice were euthanized and choroidal flat mounts were stained with isolectin B4 to examine the area of CNV.
as §2

For Brc1ccc2c(-c3csc(-c4c[nH]c5c(Br)cccc45)n3)c[nH]c2c1 [Compound 32-134D, 4-(6-bromo-1H-indol-3-yl)-2-(7-bromo-1H-indol-3-yl)thiazole], the “hypoxia induction of B7h4 and Tim3 mRNAs” value (Hepa1-6 mouse HCC cells; Hepa1-6 cells, 5 μM) was “hypoxia-induced in vehicle but not in 32-134D-treated cells”, the “hypoxia induction of Pdl1 mRNA” value (Hepa1-6 mouse HCC cells; Hepa1-6 cells, 5 μM) was “hypoxia-induced in vehicle-treated but not in 32-134D-treated cells” and the “hypoxia-induced expression of Glut1 and Ldha” value (Hepa1-6 mouse HCC cells; Hepa1-6 cells, 5 μM) was “blocked”. For the same molecule, the “decreased Cxcl1, Il6 and Il10 mRNA levels” value (Hepa1-6 mouse HCC cells; cultured Hepa1-6 cells) was “not in cultured Hepa1-6 cells exposed to 32-134D”, the “hypoxia-induced IL22 mRNA expression” value (Hepa1-6 mouse HCC cells; cultured Hepa1-6 cells) was “inhibited” and the “hypoxia-induced expression of mRNA encoding Angpt14, Pgf, Vegfa and Pgk1” value (Hepa1-6 mouse HCC cells; hypoxic Hepa1-6 cells) was “significant dose-dependent inhibition”. For the same molecule, the “vascular hyperpermeability (Evans blue leakage)” value (STZ mice) was “effectively inhibited; also recorded: significant decrease”, the “HIF-1α and HIF-2α protein accumulation in retina” value (OIR mice; single 14-ng intraocular injection, P13 and P14) was “marked reduction” and the “expression of mRNAs encoding VEGF, KDR and other HIF-regulated angiogenic mediators” value (OIR mice; single intraocular injection at P12, P17) was “decreased expression”. For the same molecule, the retinal neovascularization (OIR mice; single intravitreal injection 14 or 70 ng at P14, P17) was “significant decrease”, the “vascular leakage in I/R eyes (Evans blue)” value (C57BL/6 mice [1]) was “significant reduction in vascular leakage” and the CNV area (C57BL/6 mice [2]) was “significant decrease”.

Reference: patent publication US20250115595A1, “INHIBITORS OF HYPOXIA-INDUCIBLE FACTORS” (The Johns Hopkins University, priority 2021, published 2025)
